Source: PubChem BioAssay (NCI)
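All cell lines were grown in 96-well plates and treated with compound for 48 hours. TGI: total growth inhibition.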

Experiments:
Assay in all cases: inhibition of tumour cell growth, NCI panel, 48 h
CAKI-1 renal = test system: CAKI-1 renal
HCT-15 colon = test system: HCT-15 colon
IGROV1 ovarian = test system: IGROV1 ovarian
M14 melanoma = test system: M14 melanoma
MDA-N = test system: MDA-N
OVCAR-3 ovarian = test system: OVCAR-3 ovarian
OVCAR-8 ovarian = test system: OVCAR-8 ovarian
TK-10 renal = test system: TK-10 renal
BT-549 breast = test system: BT-549 breast

Structure (SMILES) | TGI (CAKI-1 renal) [µM] | TGI (HCT-15 colon) [µM] | TGI (IGROV1 ovarian) [µM] | TGI (M14 melanoma) [µM] | TGI (MDA-N) [µM] | TGI (OVCAR-3 ovarian) [µM] | TGI (OVCAR-8 ovarian) [µM] | TGI (TK-10 renal) [µM] | TGI (BT-549 breast) [µM]
CCC(C(=O)c1ccc(OC)c(OC)c1)N(C(=O)C(F)(F)F)C(C)c1ccccc1 (configuration not stated) | > 100 | > 100 | > 100 | > 100 | > 100 | > 100 | > 100 | > 100 | –
CCN1CCC(O)(C(C(=O)O)c2ccccc2)CC1 (configuration not stated) | > 100 | > 100 | > 100 | > 100 | – | > 100 | > 100 | > 100 | > 100
Nc1c(C(=O)c2ccc(Cl)cc2)[nH]c(NCc2ccccc2)c1C(=S)Nc1ccccc1 | 18.6 | 3.36 | 6.43 | 3.54 | 3.32 | 20.2 | 3.37 | 4.25 | 7.06
NC(=O)c1cc2ccccc2o/c1=N/O | 70.3 | > 100 | > 100 | > 100 | > 100 | > 100 | > 100 | > 100 | > 100
Nc1ccc2[nH]c(-c3cccc(Cl)c3)cc(=O)c2c1 | – | > 100 | > 100 | > 100 | – | – | > 100 | 8.55 | > 100
COc1ccc(Nc2nc3c([nH]2)c(=O)n(C)c(=O)n3C)cc1 | > 10 | > 10 | > 10 | > 10 | > 10 | – | > 10 | > 10 | –
CCCCc1ccc(Nc2nc3c(ncn3COCCO)c(=O)[nH]2)cc1 | – | > 100 | > 100 | > 100 | > 100 | > 100 | > 100 | > 100 | > 100
CCOc1cc(-c2nc3ccccn3c2/N=C/c2cc(Br)ccc2O)ccc1O | > 100 | > 100 | 49.1 | > 100 | > 100 | 34 | 59.3 | 48.7 | > 100
C=C1CC(C)(c2ccc(Nc3nc4ccccc4c4occc34)cc2)OC1=O (configuration not stated) | 40.3 | 4.73 | – | 4.73 | 12.7 | 12.9 | 11.4 | 16.7 | 7.02
CC1(C)OCC2OC3([C@H]4OC(C)(C)O[C@@H]4CO)OC(C)(C)OC3C2O1 (some centres not stated) | > 100 | > 100 | > 100 | > 100 | > 100 | > 100 | > 100 | – | > 100
CCOC(=O)/C(C#N)=N\Nc1ccc(-n2c(C)nc3ccccc3c2=O)cc1 | > 100 | > 100 | > 100 | > 100 | > 100 | 82.4 | > 100 | > 100 | > 100
CCC(=O)Oc1c2ccsc2c(OC(=O)CC)c2ccsc12 | 6.13 | 1.07 | 3.65 | 0.305 | 0.136 | – | 1.4 | 5.25 | 0.361
